According to patent publication US20120231994A1, “ANTAGONISM OF HUMAN FORMYL PEPTIDE RECEPTOR FOR TREATMENT OF DISEASE” (NIKAN PHARMACEUTICALS, LLC, priority 2009, published 2012):
pIC50: −log10 of the molar value.

Legend:
[1] = tested on: calcineurin mediated signaling; conditions: cited from earlier work
[2] = tested on: Sprague-Dawley Rats; test: Multiple Oral Gavage Toxicity Study of Cyclosporin H in Sprague-Dawley Rats with Toxicokinetics, hematology; assay type: in vivo; conditions: animals to which CsH had been administered (see Table 1)
[3] = target: T1, hFPR (Homo sapiens, UniProt P21462); test: radionuclide binding competition assay using fMLF peptide as internal standard
T1 sequence (P21462 1-350): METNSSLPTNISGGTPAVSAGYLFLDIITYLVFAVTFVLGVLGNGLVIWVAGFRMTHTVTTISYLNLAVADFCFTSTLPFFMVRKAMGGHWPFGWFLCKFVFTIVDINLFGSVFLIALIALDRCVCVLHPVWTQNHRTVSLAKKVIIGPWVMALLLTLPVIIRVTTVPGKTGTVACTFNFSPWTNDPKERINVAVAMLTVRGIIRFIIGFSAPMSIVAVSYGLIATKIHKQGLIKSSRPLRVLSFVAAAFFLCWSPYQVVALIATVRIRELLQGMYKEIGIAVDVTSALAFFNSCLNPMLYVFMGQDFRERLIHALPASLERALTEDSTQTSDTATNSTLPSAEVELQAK
Excerpt: Provided herein is the use of formyl peptide receptor antagonists in the therapy of diseases or disorders involving inappropriate, exaggerated, or prolonged neutrophil response (i.e. recruitment and/or activation). […] Thus the cyclosporins of this invention include dihydroCsH, as well as compounds of Formula I that maintain FPR inhibitory activity.

pIC50 [3] | SMILES | effect on calcineurin mediated signaling [1] | circulating eosinophils [2]
 | C/C=C/C[C@@H](C)[C@@H](O)[C@H]1C(=O)N[C@@H](CC)C(=O)N(C)CC(=O)N(C)[C@@H](CC(C)C)C(=O)N[C@@H](C(C)C)C(=O)N(C)[C@@H](CC(C)C)C(=O)N[C@@H](C)C(=O)N[C@H](C)C(=O)N(C)[C@@H](CC(C)C)C(=O)N(C)[C@@H](CC(C)C)C(=O)N(C)[C@H](C(C)C)C(=O)N1C [CsH, Cyclosporine H] | no effect | significant decrease
8.10 | CCCC[C@@H](C)[C@@H](O)[C@H]1C(=O)N[C@@H](CC)C(=O)N(C)CC(=O)N(C)[C@@H](CC(C)C)C(=O)N[C@@H](C(C)C)C(=O)N(C)[C@@H](CC(C)C)C(=O)N[C@@H](C)C(=O)N[C@H](C)C(=O)N(C)[C@@H](CC(C)C)C(=O)N(C)[C@@H](CC(C)C)C(=O)N(C)[C@H](C(C)C)C(=O)N1C [dihydroCsH, Dihydrocyclosporin H] |  | 
